Measurements reported in US20140360727A1, “REMEDIATION OF ASPHALTENE-INDUCED PLUGGING OF AN OIL-BEARING FORMATION” (SHELL OIL COMPANY, priority 2013, published 2014).
Read-outs that look alike come from different tables or passages of the source.

How the values were obtained:
Format in all cases: physicochemical
[1] = SARA analysis of bitumen samples extracted from oil sands by each solvent
Method: The bitumen samples extracted at 30° C. from each oil sands sample were evaluated by SARA analysis to determine the saturates, aromatics, resins, and asphaltenes composition of the bitumen samples extracted by each solvent.

[2] = Time required to entirely dissolve naturally occurring tar mat material; details: DMS versus A150, both experiments
Method: Two experiments were conducted on a naturally occurring tar mat material recovered from an oil-bearing formation to compare the rate of dissolution of the tar mat material using dimethyl sulfide and A150, a commercially available solvent comprised of a mixture of aromatic hydrocarbons that is commonly used to dissolve tar mats. A naturally occurring tar mat material recovered from an oil-bearing formation at a depth of 4690 meters and at a formation temperature of 50° C. was utilized as the tar mat material for the comparison.
(§1) In the first experiment, two samples of DMS solvent and two samples of A150 solvent were individually mixed with the tar mat material at ambient temperature and pressure, where the volume (ml) to weight (g) ratio of each solvent sample to the tar mat material was approximately 100:1. The length of time required to entirely dissolve the tar mat material was measured and recorded.
as §1, with “second” for “first”, “four” for “two”, “10:1.” for “100:1.”

[3] = Extraction of mined oil sands with solvents (cyclic contact and drain); details: 10 C and 30 C; FIGS. 4 and 5 and Table 1
Method: Each oil sands sample was weighed and placed in a cellulose extraction thimble that was placed on a porous polyethylene support disk in a jacketed glass cylinder with a drip rate control valve. Each oil sands sample was then extracted with a selected solvent at a selected temperature (10° C. or 30° C.) in a cyclic contact and drain experiment, where the contact time ranged from 15 to 60 minutes. Fresh contacting solvent was applied and the cyclic extraction repeated until the fluid drained from the apparatus became pale brown in color.
The extracted fluids were stripped of solvent using a rotary evaporator and thereafter vacuum dried to remove residual solvent. […] The residual solids and extraction thimble were air dried, weighed, and then vacuum dried.

| Effectiveness for extraction of asphaltenes from oil sands (SARA) ([1]; bitumen extracted at 30 C) | Rate of tar mat dissolution relative to A150 [2] | Recovery of bitumen from oil sand material versus best known fluids [3] | SMILES | Aromatics, oil composition of extracted bitumen ([1]; bitumen extracted at 30 C) | Asphaltenes, oil composition of extracted bitumen ([1]; bitumen extracted at 30 C) | Resins, oil composition of extracted bitumen ([1]; bitumen extracted at 30 C) | Saturates, oil composition of extracted bitumen ([1]; bitumen extracted at 30 C) | Aromatics, oil composition of extracted bitumen [1] | Asphaltenes, oil composition of extracted bitumen [1] | Resins, oil composition of extracted bitumen [1] |
| --- | --- | --- | --- | --- | --- | --- | --- | --- | --- | --- |
|  |  |  | S=C=S [Carbon Disulfide, carbon disulfide] | 41.89 Normalized Weight Percent | 13.85 Normalized Weight Percent | 25.49 Normalized Weight Percent | 18.77 Normalized Weight Percent |  |  |  |
| excellent miscibility properties | not less than 1.4 times | comparable | CSC [Dimethyl Sulfide, dimethyl sulfide] | 47.07 Normalized Weight Percent | 13.19 Normalized Weight Percent | 24.25 Normalized Weight Percent | 15.49 Normalized Weight Percent |  |  |  |
|  |  |  | ClC(Cl)Cl [Chloroform, chloroform] |  |  |  | 15.64 Normalized Weight Percent | 43.56 Normalized Weight Percent | 14.86 Normalized Weight Percent | 25.94 Normalized Weight Percent |
|  |  |  | Cc1ccccc1C [o-Xylene, o-xylene] | 46.39 Normalized Weight Percent | 13.96 Normalized Weight Percent | 22.28 Normalized Weight Percent | 17.37 Normalized Weight Percent |  |  |  |
|  |  |  | C1CCOC1 [Tetrahydrofuran, tetrahydrofuran] | 45.24 Normalized Weight Percent | 14.27 Normalized Weight Percent | 24.38 Normalized Weight Percent | 16.11 Normalized Weight Percent |  |  |  |
